Source: PubChem BioAssay (NCI)
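Values below derive from 48-hour exposures of cells grown in 96-well plates, with endpoints linearly interpolated between the two concentrations bracketing the appropriate inhibition level. At the GI50, growth is halved. TGI is the concentration that stops growth completely.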

Key:
Test in all cases: inhibition of tumour cell growth, NCI panel, 48 h
HCT-116 colon = test system: HCT-116 colon
MDA-MB-231 breast = test system: MDA-MB-231 breast
KM12 colon = test system: KM12 colon
OVCAR-3 ovarian = test system: OVCAR-3 ovarian
BT-549 breast = test system: BT-549 breast
SK-MEL-2 melanoma = test system: SK-MEL-2 melanoma
MOLT-4 leukemia = test system: MOLT-4 leukemia
MDA-MB-435 = test system: MDA-MB-435
SK-MEL-28 melanoma = test system: SK-MEL-28 melanoma
NCI-H23 lung = test system: NCI-H23 lung
OVCAR-5 ovarian = test system: OVCAR-5 ovarian
SW-620 colon = test system: SW-620 colon
UO-31 renal = test system: UO-31 renal
CAKI-1 renal = test system: CAKI-1 renal
HS 578T breast = test system: HS 578T breast
M14 melanoma = test system: M14 melanoma
ACHN renal = test system: ACHN renal
NCI/ADR-RES ovarian = test system: NCI/ADR-RES ovarian
TK-10 renal = test system: TK-10 renal
OVCAR-4 ovarian = test system: OVCAR-4 ovarian
SK-MEL-5 melanoma = test system: SK-MEL-5 melanoma
IGROV1 ovarian = test system: IGROV1 ovarian
SNB-75 CNS = test system: SNB-75 CNS
RXF 393 renal = test system: RXF 393 renal
HL-60(TB) leukemia = test system: HL-60(TB) leukemia
HCC-2998 colon = test system: HCC-2998 colon
UACC-62 melanoma = test system: UACC-62 melanoma
SN12C renal = test system: SN12C renal
RPMI-8226 leukemia = test system: RPMI-8226 leukemia
NCI-H460 lung = test system: NCI-H460 lung
A549 NSCLC = test system: A549 NSCLC
NCI-H226 lung = test system: NCI-H226 lung
OVCAR-8 ovarian = test system: OVCAR-8 ovarian
A498 renal = test system: A498 renal
SF-268 CNS = test system: SF-268 CNS
COLO 205 colon = test system: COLO 205 colon
HCT-15 colon = test system: HCT-15 colon
NCI-H522 lung = test system: NCI-H522 lung
HT29 colon = test system: HT29 colon
SF-539 CNS = test system: SF-539 CNS
786-0 renal = test system: 786-0 renal
U251 CNS = test system: U251 CNS
DU-145 prostate = test system: DU-145 prostate
UACC-257 melanoma = test system: UACC-257 melanoma
SR leukemia = test system: SR leukemia
T-47D breast = test system: T-47D breast
HOP-92 NSCLC = test system: HOP-92 NSCLC
PC-3 prostate = test system: PC-3 prostate
MCF7 breast = test system: MCF7 breast
CCRF-CEM leukemia = test system: CCRF-CEM leukemia
SK-OV-3 ovarian = test system: SK-OV-3 ovarian
K-562 leukemia = test system: K-562 leukemia
HOP-62 NSCLC = test system: HOP-62 NSCLC
LOX IMVI melanoma = test system: LOX IMVI melanoma

Compound: CC(=O)c1cccc(-c2cccc(-c3ccn(CCN4CCOCC4)n3)c2)c1
- GI50 (HCT-116 colon): > 20 µM
- TGI (HCT-116 colon): > 20 µM
- GI50 (MDA-MB-231 breast): > 20 µM
- TGI (MDA-MB-231 breast): > 20 µM
- GI50 (KM12 colon): > 20 µM
- TGI (KM12 colon): > 20 µM
- GI50 (OVCAR-3 ovarian): > 20 µM
- TGI (OVCAR-3 ovarian): > 20 µM
- GI50 (BT-549 breast): > 20 µM
- TGI (BT-549 breast): > 20 µM
- GI50 (SK-MEL-2 melanoma): > 20 µM
- TGI (SK-MEL-2 melanoma): > 20 µM
- GI50 (MOLT-4 leukemia): > 20 µM
- TGI (MOLT-4 leukemia): > 20 µM
- GI50 (MDA-MB-435): > 20 µM
- TGI (MDA-MB-435): > 20 µM
- GI50 (SK-MEL-28 melanoma): > 20 µM
- TGI (SK-MEL-28 melanoma): > 20 µM
- GI50 (NCI-H23 lung): > 20 µM
- TGI (NCI-H23 lung): > 20 µM
- GI50 (OVCAR-5 ovarian): > 20 µM
- TGI (OVCAR-5 ovarian): > 20 µM
- GI50 (SW-620 colon): > 20 µM
- TGI (SW-620 colon): > 20 µM
- GI50 (UO-31 renal): > 20 µM
- TGI (UO-31 renal): > 20 µM
- GI50 (CAKI-1 renal): > 20 µM
- TGI (CAKI-1 renal): > 20 µM
- GI50 (HS 578T breast): > 20 µM
- TGI (HS 578T breast): > 20 µM
- GI50 (M14 melanoma): > 20 µM
- TGI (M14 melanoma): > 20 µM
- GI50 (ACHN renal): > 20 µM
- TGI (ACHN renal): > 20 µM
- GI50 (NCI/ADR-RES ovarian): > 20 µM
- TGI (NCI/ADR-RES ovarian): > 20 µM
- GI50 (TK-10 renal): > 20 µM
- TGI (TK-10 renal): > 20 µM
- GI50 (OVCAR-4 ovarian): > 20 µM
- TGI (OVCAR-4 ovarian): > 20 µM
- GI50 (SK-MEL-5 melanoma): 11.6 µM
- TGI (SK-MEL-5 melanoma): > 20 µM
- GI50 (IGROV1 ovarian): > 20 µM
- TGI (IGROV1 ovarian): > 20 µM
- GI50 (SNB-75 CNS): > 20 µM
- TGI (SNB-75 CNS): > 20 µM
- GI50 (RXF 393 renal): > 20 µM
- TGI (RXF 393 renal): > 20 µM
- GI50 (HL-60(TB) leukemia): > 20 µM
- TGI (HL-60(TB) leukemia): > 20 µM
- GI50 (HCC-2998 colon): > 20 µM
- TGI (HCC-2998 colon): > 20 µM
- GI50 (UACC-62 melanoma): > 20 µM
- TGI (UACC-62 melanoma): > 20 µM
- GI50 (SN12C renal): > 20 µM
- TGI (SN12C renal): > 20 µM
- GI50 (RPMI-8226 leukemia): > 20 µM
- TGI (RPMI-8226 leukemia): > 20 µM
- GI50 (NCI-H460 lung): > 20 µM
- TGI (NCI-H460 lung): > 20 µM
- GI50 (A549 NSCLC): > 20 µM
- TGI (A549 NSCLC): > 20 µM
- GI50 (NCI-H226 lung): > 20 µM
- TGI (NCI-H226 lung): > 20 µM
- GI50 (OVCAR-8 ovarian): > 20 µM
- TGI (OVCAR-8 ovarian): > 20 µM
- GI50 (A498 renal): 14.5 µM
- TGI (A498 renal): > 20 µM
- GI50 (SF-268 CNS): > 20 µM
- TGI (SF-268 CNS): > 20 µM
- GI50 (COLO 205 colon): > 20 µM
- TGI (COLO 205 colon): > 20 µM
- GI50 (HCT-15 colon): > 20 µM
- TGI (HCT-15 colon): > 20 µM
- GI50 (NCI-H522 lung): > 20 µM
- TGI (NCI-H522 lung): > 20 µM
- GI50 (HT29 colon): > 20 µM
- TGI (HT29 colon): > 20 µM
- GI50 (SF-539 CNS): > 20 µM
- TGI (SF-539 CNS): > 20 µM
- GI50 (786-0 renal): > 20 µM
- TGI (786-0 renal): > 20 µM
- GI50 (U251 CNS): > 20 µM
- TGI (U251 CNS): > 20 µM
- GI50 (DU-145 prostate): > 20 µM
- TGI (DU-145 prostate): > 20 µM
- GI50 (UACC-257 melanoma): > 20 µM
- TGI (UACC-257 melanoma): > 20 µM
- GI50 (SR leukemia): > 20 µM
- TGI (SR leukemia): > 20 µM
- GI50 (T-47D breast): 17.4 µM
- TGI (T-47D breast): > 20 µM
- GI50 (HOP-92 NSCLC): 16.2 µM
- TGI (HOP-92 NSCLC): > 20 µM
- GI50 (PC-3 prostate): > 20 µM
- TGI (PC-3 prostate): > 20 µM
- GI50 (MCF7 breast): > 20 µM
- TGI (MCF7 breast): > 20 µM
- GI50 (CCRF-CEM leukemia): > 20 µM
- TGI (CCRF-CEM leukemia): > 20 µM
- GI50 (SK-OV-3 ovarian): > 20 µM
- TGI (SK-OV-3 ovarian): > 20 µM
- GI50 (K-562 leukemia): > 20 µM
- TGI (K-562 leukemia): > 20 µM
- GI50 (HOP-62 NSCLC): > 20 µM
- TGI (HOP-62 NSCLC): > 20 µM
- GI50 (LOX IMVI melanoma): > 20 µM
- TGI (LOX IMVI melanoma): > 20 µM
